Results: patent EP0088602A2, “Microbiological oxidation process” (EXXON RESEARCH AND ENGINEERING COMPANY, priority 1982, dated 1983)
Where “and” joins values, the source holds several entries; their conditions need not be identical. Equal values may be shown once. Read-outs that look alike come from different tables or passages of the source.

Legend:
[1] = system: Secondary Alcohol Dehydrogenase; assay: Dehydrogenation of the secondary alcohol in the coupled reaction (Example 22); type: biochemical, yeast Pichia sp.; settings: NAD^+
Experimental: The procedure of Example 15 was followed using 1.0 ml of a reaction mixture consisting of 50 µ moles potassium phosphate buffer at pH 7.0, 10 µ moles NAD^+, 10 µ moles secondary alcohol (either 2-butanol or 2-propanol), and, as the remainder, secondary alcohol dehydrogenase from yeast Pichia sp. and the soluble S(80) fraction obtained as described in Example 14. The dehydrogenase was previously purified as described in Patel et al., Eur. J. Biochem., 101, 401 (1979).

[2] = system: Soluble Methane Monooxygenase from Methylobacterium organophilum (ATCC 27,886); assay: Oxidation of alkanes/alkenes with NADH2 regenerated by secondary alcohol dehydrogenase (Example 22); type: biochemical
Experimental: (§1) The vials were incubated at 35°C on a reciprocating water bath shaker at 50 oscillations per minute.. The gaseous phase of the vials was evacuated by vacuum and replaced with a gaseous mixture consisting of 1:1 by volume oxygen:the alkane substrate indicated in Table XVIII, at which point the reaction was initiated.
(§2) The rate of oxidation of the alkane substrates was measured either by estimation of products formed or by amount of substrate utilized from the gas or liquid phase. In the former case, 1-2 µ 1 samples of the reaction mixture were injected into a gas chromatograph immediately after addition of substrate (zero time) and after 4 and 8 min. of incubation. Specific activities were expressed as nmoles of product formed per min. per mg of protein, with the higher number representing better conversion. If substrate utilization was the measure of oxidation rate, […] of liquid or 50 Al of gas was injected into the gas chromatograph at zero time and after 4 and 8 min. of incubation of the reaction mixture at 35°C, and specific activities were expressed as the amount of substrate utilized per min. per mg. of protein. Regardless of the procedure employed, control experiments were conducted for each substrate in the absence of NADH2, in the absence of oxygen, and using boiled extracts.
(§3) The alcohol products were identified and estimated by retention time comparisons and co-chromatography with authentic standards using flame-ionization gas chromatography. The column temperature was maintained isothermally between 80°C and 130°C with helium carrier gas flow rates of 20-40 ml per min. The amount of product formed was estimated from peak areas using a standard graph constructed using authentic compounds.
(§4) Duplicate measurements were carried out for each substrate. Protein concentrations in cellular fractions were estimated with Folin Ciocalteu reagent as described by O.H. Lowry et al., supra, using bovine serum albumin as a standard.

[3] = system: Soluble Methane Monooxygenase; assay: Effect of potential inhibitors on propylene oxidation by the soluble S(80) fraction (Example 9); type: biochemical, Methylobacterium organophilum (CRL.26)
Experimental: (§5) The vials were incubated at 35 °C on a reciprocating water bath shaker at 50 oscillations per minute. […]
[…] Specific activities were expressed as nmoles of product formed per min. per mg. of protein, with the higher number representing better conversion. With each substrate, control experiments were conducted in the absence of NADH2, in the absence of oxygen, and using boiled extracts.
[…] The column temperature was maintained isothermally between 80 °C and 200°C with helium carrier gas flow rates of 20-40 ml per min. The amount of product formed was estimated from peak areas using a standard graph constructed using authentic compounds.
(§6) Duplicate measurements were carried out for each substrate.

[4] = biological target: T1, soluble methane monooxygenase from Methylococcus capsulatus (Bath) (Methylococcus capsulatus, UniProt P22869); type: biochemical; design: host or cells: soluble fraction of Methylococcus capsulatus Strain Bath; settings: comparison with CRL.26 in Example 9
[5] = system: Soluble Methane Monooxygenase from Methylobacterium organophilum (ATCC 27,886); assay: Oxidation of alkanes/alkenes with NADH2 regenerated by formate and NAD+ (Example 20); type: biochemical
Experimental: as §1, §2, §3, §4

[6] = system: Methane Monooxygenase from Methylobacterium sp. CRL.26; assay: Hydroxylation of alkanes / epoxidation of alkenes with NADH2 regenerated by formaldehyde dehydrogenase (Example 12, Table XV); type: biochemical
Experimental: The vials were incubated at 35 °C on a reciprocating water bath shaker at 50 oscillations per minute. The gaseous phase of the vials was evacuated by vacuum and replaced with a 1 to 1 by volume gaseous mixture of the alkane substrate indicated in Table III to oxygen, at which point the reaction was initiated.
(§7) The rate of oxidation of the alkanes was measured by injecting 1-2 µ 1 samples of the reaction mixture into a gas chromatograph immediately after addition of substrate (zero time) and after 5 and 10 min. of incubation. Specific activities were expressed as nmoles of product formed per min. per mg. of protein, with the higher number representing better conversion. With each substrate, control experiments were conducted in the absence of NADH2, in the absence of oxygen, and using boiled extracts.
as §3, with “80 °C” for “80°C”, “200°C” for “130°C”
Duplicate measurements were carried out for each substrate. Protein concentrations in cellular fractions were estimated with Folin Ciocalteu reagent as described by O.H. Lowry et al., J. Biol. Chem., 193, 265 (1951), using bovine serum albumin as a standard.

[7] = biological target: soluble methane monooxygenase from Methylosinus trichosporium (OB3b) (Methylosinus trichosporium, UniProt P27353); settings: cited from earlier work
[8] = biological target: T1, soluble methane monooxygenase from Methylococcus capsulatus (Bath); settings: cited from earlier work
[9] = system: Soluble Methane Monooxygenase from Methylobacterium organophilum (ATCC 27,886); assay: Hydroxylation of alkanes / epoxidation of alkenes with NADH2 regenerated by formaldehyde dehydrogenase (Example 21); type: biochemical
Experimental: as §1, §2, §3, §4

[10] = system: soluble methane monooxygenase; assay: Other electron donors in place of NADH2 (Example 23); type: biochemical, Methylobacterium organophilum (ATCC 27,886); settings: as electron donor replacing NADH2 in the procedure of Example 15
Experimental: as §1, §2

[11] = system: Soluble Methane Monooxygenase; assay: Effect of various cofactor systems on propylene oxidation by the soluble S(80) fraction (Examples 7, 11); type: biochemical, Methylobacterium organophilum (CRL.26); settings: propylene substrate; for Specific Activity: cofactor system at 2.5 mM; for suitability as cofactor system / electron donor (in words): replacing NADH2
Experimental: as §5, §7
as §3, with “80 °C” for “80°C”, “200°C” for “130°C”
as §6

[12] = inhibitor 1 mM, incubated at 0°C for 15 min, propylene substrate, percentage of control (100%) containing no inhibitor
[13] = inhibitor 1 mM, incubated at 0°C for 15 min, propylene substrate, percentage of control containing no inhibitor
[14] = inhibitor 0.1 mM, incubated at 0°C for 15 min, propylene substrate, percentage of control (100%) containing no inhibitor
[15] = inhibitor 0.1 mM, incubated at 0°C for 15 min, propylene substrate, percentage of control containing no inhibitor

T1 sequence (P22869 whole entry): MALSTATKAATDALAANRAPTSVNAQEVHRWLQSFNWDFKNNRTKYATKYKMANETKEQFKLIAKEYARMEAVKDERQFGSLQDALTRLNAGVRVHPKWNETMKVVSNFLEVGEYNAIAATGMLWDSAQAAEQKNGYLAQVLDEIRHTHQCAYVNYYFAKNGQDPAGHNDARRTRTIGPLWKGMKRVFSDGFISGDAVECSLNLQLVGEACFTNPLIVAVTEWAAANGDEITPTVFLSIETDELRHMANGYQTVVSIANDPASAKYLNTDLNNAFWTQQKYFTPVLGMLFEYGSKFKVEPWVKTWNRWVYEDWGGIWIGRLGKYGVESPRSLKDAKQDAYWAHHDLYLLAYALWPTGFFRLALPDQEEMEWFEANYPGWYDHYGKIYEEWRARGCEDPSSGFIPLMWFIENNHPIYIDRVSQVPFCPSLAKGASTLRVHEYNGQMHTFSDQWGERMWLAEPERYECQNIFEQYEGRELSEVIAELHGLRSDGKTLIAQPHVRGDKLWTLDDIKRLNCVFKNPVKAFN
T1 sequence (P18798 whole entry, further chain): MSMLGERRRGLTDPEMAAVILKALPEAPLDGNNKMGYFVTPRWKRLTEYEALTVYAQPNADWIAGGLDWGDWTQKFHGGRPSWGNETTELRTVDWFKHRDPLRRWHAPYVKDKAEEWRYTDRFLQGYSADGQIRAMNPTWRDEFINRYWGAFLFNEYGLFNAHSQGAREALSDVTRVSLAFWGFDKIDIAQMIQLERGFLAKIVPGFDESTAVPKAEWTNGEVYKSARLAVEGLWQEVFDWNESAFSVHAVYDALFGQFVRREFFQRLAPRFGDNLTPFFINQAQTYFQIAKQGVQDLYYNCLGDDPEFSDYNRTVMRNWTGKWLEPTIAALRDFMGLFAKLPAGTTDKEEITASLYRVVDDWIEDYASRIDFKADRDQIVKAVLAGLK
T1 sequence (P11987 whole entry, further chain): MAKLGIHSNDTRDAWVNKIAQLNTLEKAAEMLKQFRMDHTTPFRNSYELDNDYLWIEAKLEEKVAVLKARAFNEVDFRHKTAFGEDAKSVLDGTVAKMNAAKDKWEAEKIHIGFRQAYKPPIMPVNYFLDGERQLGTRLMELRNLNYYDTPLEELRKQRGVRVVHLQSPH
Chain of soluble methane monooxygenase from Methylosinus trichosporium (OB3b) (P27354 whole entry): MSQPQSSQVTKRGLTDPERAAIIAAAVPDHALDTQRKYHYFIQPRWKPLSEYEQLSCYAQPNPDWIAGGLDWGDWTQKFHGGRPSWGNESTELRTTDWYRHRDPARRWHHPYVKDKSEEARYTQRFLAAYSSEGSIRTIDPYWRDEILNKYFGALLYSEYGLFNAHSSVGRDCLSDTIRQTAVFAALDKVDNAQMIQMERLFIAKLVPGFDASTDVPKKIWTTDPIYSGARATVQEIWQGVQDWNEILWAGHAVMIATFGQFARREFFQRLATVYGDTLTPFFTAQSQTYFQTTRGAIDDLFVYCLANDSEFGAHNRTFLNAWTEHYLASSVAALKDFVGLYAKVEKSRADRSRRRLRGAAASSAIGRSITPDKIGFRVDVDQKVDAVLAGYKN
Chain of soluble methane monooxygenase from Methylosinus trichosporium (OB3b) (P27355 whole entry, further chain): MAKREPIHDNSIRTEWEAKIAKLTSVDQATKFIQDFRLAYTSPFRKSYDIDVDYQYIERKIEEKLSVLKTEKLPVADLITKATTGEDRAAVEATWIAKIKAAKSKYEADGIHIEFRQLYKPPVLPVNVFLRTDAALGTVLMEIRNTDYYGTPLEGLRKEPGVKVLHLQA
Chain of soluble methane monooxygenase from Methylosinus trichosporium (OB3b) (P27353 whole entry): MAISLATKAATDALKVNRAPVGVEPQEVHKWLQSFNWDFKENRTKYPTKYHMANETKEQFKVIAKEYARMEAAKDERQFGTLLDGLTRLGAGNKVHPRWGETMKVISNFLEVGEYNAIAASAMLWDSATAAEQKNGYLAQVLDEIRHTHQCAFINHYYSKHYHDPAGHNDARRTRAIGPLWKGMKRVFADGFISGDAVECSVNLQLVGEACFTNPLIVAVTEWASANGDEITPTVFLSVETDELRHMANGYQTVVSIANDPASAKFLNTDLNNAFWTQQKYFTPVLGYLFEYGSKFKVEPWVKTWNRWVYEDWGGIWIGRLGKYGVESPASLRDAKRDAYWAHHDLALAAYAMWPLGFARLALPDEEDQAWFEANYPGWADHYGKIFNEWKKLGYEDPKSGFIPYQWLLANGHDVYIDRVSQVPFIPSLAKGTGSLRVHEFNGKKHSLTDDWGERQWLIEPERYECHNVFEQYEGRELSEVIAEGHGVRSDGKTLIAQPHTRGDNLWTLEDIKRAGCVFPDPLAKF

## 2-Butanol
[1]; product 2-Butanone, substrates Ethane and 2-Butanol
  Rate of Product Formation: 48 nmoles/ min/mg of protein
[1]; product 2-Butanone, substrates Ethylene and 2-Butanol
  Rate of Product Formation: 45 nmoles/ min/mg of protein
[1]; product 2-Butanone, substrates Methane and 2-Butanol
  Rate of Product Formation: 50 nmoles/ min/mg of protein
[1]; product 2-Butanone, substrates Propane and 2-Butanol
  Rate of Product Formation: 45 nmoles/ min/mg of protein
[1]; product 2-Butanone, substrates Propylene and 2-Butanol
  Rate of Product Formation: 50 nmoles/ min/mg of protein
[2]; product Acetone, substrates Propane and 2-Butanol, NAD^+, secondary alcohol dehydrogenase
  Rate of Product Formation: 18 nmoles/ min/mg of protein

## c1cnc2c(c1)ccc1cccnc12 [1,10-Phenanthroline]
[3]
  inhibition of soluble methane monooxygenase activity (in words): not inhibited
[3]; [12]
  Activity (%): 67%
[3]; [13]
  Inhibition (%): 33%
[3]; statement in the text of Example 9
  inhibited activity of Methylobacterium organophilum (CRL.26): about 30%
[4]
  inhibition of the activity of Methylococcus capsulatus (Bath) (in words): did not inhibit

## C=CCC [1-Butene]
[5]; pH 7
  Rate of Product Formation: 35 nmoles/ min/mg of protein
[6]; pH 7
  Rate of Product Formation: 180 nmoles/min/mg protein

## CC(C)O [2-Propanol]
[1]; product Acetone, substrates Butane and 2-Propanol
  Rate of Product Formation: 45 nmoles/ min/mg of protein
[1]; product Acetone, substrates Isobutylene and 2-Propanol
  Rate of Product Formation: 45 nmoles/ min/mg of protein
[2]; product 2-Butanone, substrates Butane and 2-Propanol, NAD^+, secondary alcohol dehydrogenase
  Rate of Product Formation: 10 nmoles/ min/mg of protein

## O=C(O)c1cc(SSc2ccc([N+](=O)[O-])c(C(=O)O)c2)ccc1[N+](=O)[O-] [5,5'-dithiobis-2-nitrobenzoate]
[3]
  inhibition of soluble methane monooxygenase activity (in words): inhibit
[3]; [12]
  Activity (%): 38%
[3]; [13]
  Inhibition (%): 62%

## Oc1cccc2cccnc12 [8-Hydroxyquinoline]
[7]
  inhibition of soluble methane monooxygenase (in words): strongly inhibits
[3]
  Activity (%): 117%
  Inhibition (%): 0%
  inhibition of soluble methane monooxygenase activity (in words): not inhibitory
[8]
  inhibition of soluble methane monooxygenase (in words): strongly inhibits

## CCCC [Butane]
[9]; pH 7
  Rate of Product Formation: 20 nmoles/ min/mg of protein and 10 nmoles/ min/mg of protein
[2]
  Rate of Product Formation: 15 nmoles/ min/mg of protein
[6]; pH 7
  Rate of Product Formation: 250 nmoles/min/mg protein and 150 nmoles/min/mg protein

## CC [Ethane]
[6]; product Ethanol, NAD^+, formaldehyde, reduced glutathione, formaldehyde dehydrogenase, pH 7.0
  Rate of Product Formation: 145 nmoles/min/mg protein

## C=C [Ethylene]
[5]; pH 7
  Rate of Product Formation: 28 nmoles/ min/mg of protein
[9]; pH 7
  Rate of Product Formation: 28 nmoles/ min/mg of protein
[2]
  Rate of Product Formation: 25 nmoles/ min/mg of protein
[6]; pH 7
  Rate of Product Formation: 140 nmoles/min/mg protein

## NC(=O)CI [Iodoacetamide]
[3]
  inhibition of soluble methane monooxygenase activity (in words): inhibit
[3]; [12]
  Activity (%): 20%
[3]; [13]
  Inhibition (%): 80%

## C=C(C)C [Isobutylene]
[2]; product Epoxyisobutylene, substrates Isobutylene and 2-Propanol, NAD^+, secondary alcohol dehydrogenase
  Rate of Product Formation: 29 nmoles/ min/mg of protein

## C [Methane]
[6]; product Methanol, NAD^+, formaldehyde, reduced glutathione, formaldehyde dehydrogenase from Pichia sp., pH 7.0
  Rate of Product Formation: 128 nmoles/min/mg protein

## CCN1C(=O)C=CC1=O [N-Ethylmaleimide]
[3]; [12]
  Activity (%): 102%
[3]; [13]
  Inhibition (%): 0%

## NC(=O)C1=CN([C@@H]2O[C@H](COP(=O)(O)OP(=O)(O)OC[C@H]3O[C@@H](n4cnc5c(N)ncnc54)[C@H](O)[C@@H]3O)[C@@H](O)[C@H]2O)C=CC1 [NADH2, nicotinamide adenine dinucleotide in the reduced form]
[10]
  soluble methane monooxygenase activity observed: about 70%
[11]
  Specific Activity: 100 nmoles/min/mg of protein
  suitability as cofactor system / electron donor (in words): suitable

## NC(=O)C1=CN([C@@H]2O[C@H](COP(=O)(O)OP(=O)(O)OC[C@H]3O[C@@H](n4cnc5c(N)ncnc54)[C@H](OP(=O)(O)O)[C@@H]3O)[C@@H](O)[C@H]2O)C=CC1 [NADPH2, nicotinamide adenine dinucleotide phosphate in the reduced form]
[11]
  Specific Activity: 70 nmoles/min/mg of protein
  suitability as cofactor system / electron donor (in words): suitable

## CCC [Propane]
[6]; product Propan-1-ol, NAD^+, formaldehyde, reduced glutathione, formaldehyde dehydrogenase, pH 7.0
  Rate of Product Formation: 60 nmoles/min/mg protein
[6]; product Propan-2-ol, NAD^+, formaldehyde, reduced glutathione, formaldehyde dehydrogenase, pH 7.0
  Rate of Product Formation: 95 nmoles/min/mg protein

## C=CC [Propylene]
[5]; product Propylene Oxide, NAD^+ and sodium formate, pH 7.0
  Rate of Product Formation: 54 nmoles/ min/mg of protein
[3]; no inhibitor, substrate propylene
  uninhibited rate of propylene oxidation: (b) The uninhibited rate of propylene oxidation was 100 nmoles of propylene oxide produced/min/mg of protein.
[9]; product Propylene Oxide, NAD^+, reduced glutathione, formaldehyde, formaldehyde dehydrogenase, pH 7.0
  Rate of Product Formation: 52 nmoles/ min/mg of protein
[2]; product Propylene oxide, substrates Propylene and 2-Butanol, NAD^+, secondary alcohol dehydrogenase
  Rate of Product Formation: 48 nmoles/ min/mg of protein
[6]; product Propylene Oxide, NAD^+, formaldehyde, reduced glutathione, formaldehyde dehydrogenase, pH 7.0
  Rate of Product Formation: 250 nmoles/min/mg protein

## NNC(N)=S [Thiosemicarbazide]
[3]
  inhibition of soluble methane monooxygenase activity (in words): not inhibited
[3]; [12]
  Activity (%): 108%
[3]; [13]
  Inhibition (%): 0%

## O=C(O)c1cc[c]([Hg+])cc1.[OH-] [p-Hydroxymercuribenzoate]
[3]; [14]
  Activity (%): 100%
[3]; [15]
  Inhibition (%): 0%

## Acriflavin
[3]
  inhibition of soluble methane monooxygenase activity (in words): inhibit
[3]; [14]
  Activity (%): 71%
[3]; [15]
  Inhibition (%): 29%
